Values of other authors as cited in US20130244874A1, “Waterless Composition Comprising Pesticide and Copolymers with Sulfonic Acid Groups” (BASF SE, priority 2010, published 2013).
In brackets after ≈: the same amount, converted by molar mass.

SMILES | miscibility with water (solvent) | also measured
O=C1CCCO1 [Solvent G, gamma-butyrolactone] | infinitely miscible with water | 
Cn1cc(C(=O)Nc2ccccc2-c2cc(F)c(F)c(F)c2)c(C(F)F)n1 [Fluxapyroxad, reference compound] |  | solubility in water (20° C.): 3.8 µg/mL (≈ 9.97 µM)
CC(C)CCCCCCOC(=O)C1CCCCC1C(=O)OCCCCCCC(C)C (stereo not shown) [Solvent C, Diisononyl 1,2-cyclohexanedicarboxylate] |  | water-soluble (solvent, temperature not given): < 0.02 mg/L
C[S+](C)[O-] [Solvent E, DMSO] | infinitely miscible with water | 
